Test results reported in ChEMBL document CHEMBL1153435, “Harnessing nature's insight: design of aspartyl protease inhibitors from treatment of drug-resistant HIV to Alzheimer's disease” (J Med Chem, 2009).
*1 amine or outer side, *2 acyl side, *3 side chain or, on linkers, in order; H or OH if unused. Where a SMILES comes first, the peptide text is derived from it. [ ]: non-standard residue; d: D form. LeuΨ(S-CHOHCH2)Ala = CC(C)C[C@H](N[*:1])[C@@H](O)C[C@@H](C)C(=O)[*:2]

Columns and labels:
[1] = tested on: Human immunodeficiency virus 1; assay: Antiviral activity against HIV1 assessed as inhibition of viral replication; format: functional, organism-based; details: for IC95: read-out: CIC95
[2] = biological target: Protease (Human immunodeficiency virus 1, UniProt Q9YQ12); assay: Inhibition of HIV1 protease
[3] = biological target: Beta-secretase 1 (Homo sapiens, UniProt P56817); assay: Inhibition of recombinant memapsin 2
[4] = biological target: Protease (Human immunodeficiency virus 1) (UniProt Q9YQ12)
[5] = tested on: Human immunodeficiency virus 1; assay: Antiviral activity against protease inhibitor resistant HIV1 isolates; format: functional, organism-based
[6] = tested on: Human immunodeficiency virus 1; assay: Antiviral activity against laboratory HIV1 strains and primary clinical isolates
[7] = Oral bioavailability in HIV1 infected patient at 600 mg administered as single dose; format: ADME, organism-based; details: human, in vivo
[8] = read-out: ID50 (the source's name)

Protease, sequence (Q9YQ12 whole entry): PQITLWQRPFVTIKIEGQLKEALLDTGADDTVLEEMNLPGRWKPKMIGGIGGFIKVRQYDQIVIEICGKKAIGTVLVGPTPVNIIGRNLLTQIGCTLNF
Beta-secretase 1, sequence (P56817 whole entry): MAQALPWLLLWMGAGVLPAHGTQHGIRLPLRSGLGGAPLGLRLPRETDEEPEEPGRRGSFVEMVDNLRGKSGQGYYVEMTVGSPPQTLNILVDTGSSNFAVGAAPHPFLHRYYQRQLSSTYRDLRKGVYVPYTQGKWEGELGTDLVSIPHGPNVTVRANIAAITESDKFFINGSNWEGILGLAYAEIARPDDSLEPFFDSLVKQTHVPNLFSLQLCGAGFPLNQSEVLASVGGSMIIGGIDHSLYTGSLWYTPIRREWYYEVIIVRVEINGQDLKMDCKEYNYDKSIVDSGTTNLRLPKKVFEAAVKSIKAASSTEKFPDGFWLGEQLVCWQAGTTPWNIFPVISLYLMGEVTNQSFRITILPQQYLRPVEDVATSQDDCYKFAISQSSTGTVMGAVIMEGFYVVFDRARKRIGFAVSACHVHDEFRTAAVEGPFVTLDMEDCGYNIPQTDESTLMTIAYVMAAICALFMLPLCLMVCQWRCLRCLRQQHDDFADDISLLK
Protease (Human immunodeficiency virus 1), sequence (Q9YQ12 as listed by the source): as the sequence (Q9YQ12 whole entry) above

CC(C)CN(C[C@@H](O)[C@H](Cc1ccccc1)NC(=O)O[C@H]1CO[C@H]2OCC[C@H]21)S(=O)(=O)c1ccc2c(c1)OCO2
IC50 ([1]; read-out: IC50): 1.4 nM

CC(C)(C)NC(=O)[C@@H]1C[C@@H]2CCCC[C@@H]2CN1C[C@@H](O)[C@H](Cc1ccccc1)NC(=O)[C@H](CC(N)=O)NC(=O)c1ccc2ccccc2n1
IC50 [1, 8]: 18 nM

CC(C)(C)NC(=O)[C@@H]1C[C@@H]2CCCC[C@@H]2CN1C[C@@H](O)[C@H](Cc1ccccc1)NC(=O)O[C@H]1CC[C@H]2OCC[C@@H]12
IC50 [2]: 17 nM

CC(C)C[C@H](NC(=O)[C@H](CC(N)=O)NC(=O)[C@@H](N)C(C)C)[C@@H](O)C[C@@H](C)C(=O)N[C@@H](C)C(=O)N[C@@H](CCC(=O)O)C(=O)N[C@@H](Cc1ccccc1)C(=O)O (H-VN[LeuΨ(S-CHOHCH2)Ala]AEF-OH)
Ki [3]: 6.8 nM

CC(C)CN(C[C@@H](O)[C@H](Cc1ccccc1)NC(=O)O[C@H]1CCOC1)S(=O)(=O)c1ccc(N)cc1
Ki [2]: 0.6 nM
IC90 [4]: 40 nM

COc1ccc(S(=O)(=O)N(CC(C)C)C[C@@H](O)[C@H](Cc2ccccc2)NC(=O)O[C@H]2CO[C@H]3OCC[C@H]32)cc1
IC50 [5]: 0.5 nM

O=C(N[C@@H](Cc1ccccc1)[C@@H](O)C[C@@H](Cc1ccccc1)C(=O)N[C@H]1c2ccccc2C[C@H]1O)OC1CCCC1
IC50 [2]: 0.3 nM
IC95 [1]: 0.4 µM

CC(C)(C)NC(=O)[C@@H]1C[C@@H]2CCCC[C@@H]2CN1C[C@@H](O)[C@H](Cc1ccccc1)NC(=O)O[C@H]1CCS(=O)(=O)C1
IC50 [2]: 76 nM
IC95 [1]: 0.35 µM

CC(C)(C)NC(=O)[C@@H]1C[C@@H]2CCCC[C@@H]2CN1C[C@@H](O)[C@H](Cc1ccccc1)NC(=O)O[C@H]1CO[C@H]2OCC[C@H]21
IC95 [1]: 0.046 µM

COc1ccc(S(=O)(=O)N(CC(C)C)C[C@@H](O)[C@H](Cc2ccccc2)NC(=O)O[C@H]2CC[C@H]3OCO[C@@H]23)cc1
IC50 [2]: 3.8 nM
Ki [2]: 0.11 nM

COc1ccc(S(=O)(=O)N(CC(C)C)C[C@@H](O)[C@H](Cc2ccccc2)NC(=O)[C@@H]2CCO[C@]3(CCCO3)C2)cc1
Ki [2]: 3.9 nM
IC50 [1, 8]: 1200 nM

COc1ccc(S(=O)(=O)N(CC(C)C)C[C@@H](O)[C@H](Cc2ccccc2)NC(=O)O[C@H]2CCS(=O)(=O)C2)cc1
Ki [2]: 1.4 nM
IC50 [1, 8]: 19 nM

COc1ccc(S(=O)(=O)N(CC(C)C)C[C@@H](O)[C@H](Cc2ccccc2)NC(=O)O[C@@H]2CCOCOC2)cc1
IC50 [2]: 5 nM

COc1ccc(S(=O)(=O)N(CC(C)C)C[C@@H](O)[C@H](Cc2ccccc2)NC(=O)O[C@H]2CC[C@]3(CCCO3)C2)cc1
Ki [2]: 3.7 nM
IC50 [1, 8]: 265 nM

COc1ccc(S(=O)(=O)N(CC(C)C)C[C@@H](O)[C@H](Cc2ccccc2)NC(=O)O[C@H]2COC3OCCC[C@@H]32)cc1 (single isomer, unassigned)
Ki [2]: 2.2 nM
IC50 [1, 8]: 4.5 nM

CC(C)CN(C[C@@H](O)[C@H](Cc1ccccc1)NC(=O)O[C@H]1CO[C@H]2OCC[C@H]21)S(=O)(=O)c1ccc(N)cc1
IC50 ([1]; read-out: IC50): 4.1 nM
IC90 [6]: 9 nM

CSCC[C@H](NC(=O)[C@@H](NC(=O)OC(C)(C)C)C(C)C)C(=O)N[C@@H](CC(C)C)[C@@H](O)C[C@@H](C)C(=O)N[C@H](C(=O)NCC(C)C)C(C)C
Ki [3]: 0.8 nM

CC(C)(C)NC(=O)[C@@H]1C[C@@H]2CCCC[C@@H]2CN1C[C@@H](O)[C@H](Cc1ccccc1)NC(=O)[C@@H](NC(=O)c1ccc2ccccc2n1)[C@H]1CCOC1
IC50 [2]: 0.05 nM
IC95 [1]: 0.008 µM

CC(C)(C)NC(=O)[C@@H]1C[C@@H]2CCCC[C@@H]2CN1C[C@@H](O)[C@H](Cc1ccccc1)NC(=O)O[C@H]1CCOC1
IC50 [2]: 160 nM
IC95 [1]: 0.8 µM

COc1ccc(S(=O)(=O)N(CC(C)C)C[C@@H](O)[C@H](Cc2ccccc2)NC(=O)O[C@H]2CO[C@@H]3OCC[C@@H]32)cc1
IC50 ([1]; read-out: IC50): 4.1 nM

COc1ccc(S(=O)(=O)N(CC(C)C)C[C@@H](O)[C@H](Cc2ccccc2)NC(=O)[C@@H]2CCCS(=O)(=O)C2)cc1
Ki [2]: 1.4 nM
IC50 [1, 8]: 17 nM

CC(C)c1nc(CN(C)C(=O)N[C@H](C(=O)N[C@@H](Cc2ccccc2)C[C@H](O)[C@H](Cc2ccccc2)NC(=O)OCc2cncs2)C(C)C)cs1 [RITONAVIR]
bioavailability [7]: 37%

COc1ccc(S(=O)(=O)N(C[C@@H]2CCC(=O)N2)C[C@@H](O)[C@H](Cc2ccccc2)NC(=O)O[C@H]2CC[C@H]3OCC[C@@H]23)cc1
IC50 [2]: 28 nM
Ki [2]: 0.16 nM

O=C(N[C@@H](Cc1ccccc1)[C@@H](O)C[C@@H](Cc1ccccc1)C(=O)N[C@H]1c2ccccc2C[C@H]1O)O[C@H]1CCOC1
IC50 [2]: < 0.03 nM
IC95 [1]: 0.003 µM

COc1ccc(S(=O)(=O)N(CC(C)C)C[C@@H](O)[C@H](Cc2ccccc2)NC(=O)[C@@H]2CCC[C@]3(CCCO3)C2)cc1
Ki [2]: 2.9 nM
